Data: patent publication US10173991B2, “Sulfone amide linked benzothiazole inhibitors of endothelial lipase” (BRISTOL-MYERS SQUIBB COMPANY, priority 2014, dated 2019)

Molecular target: Endothelial lipase (EL) (Homo sapiens (Human), UniProt Q9Y5X9)
Assay: Endothelial lipase (EL) enzymatic assay with fluorescent substrate A10070 in DMPG vesicles
Assay type: biochemical
How it was run: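 EL from conditioned medium of HT-1080 cells engineered to overexpress endogenous EL; HL partially purified from conditioned medium of HL-overexpressing COS cells. Enzyme preincubated with compound 30 min at 37° C in 50 mM HEPES pH 8.0, 50 mM NaCl, 1 mM CaCl2; DMPG vesicles carrying FRET substrate (0.11 mole fraction) then added.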

Chain of Endothelial lipase (EL) (Q9Y5X9 21-500): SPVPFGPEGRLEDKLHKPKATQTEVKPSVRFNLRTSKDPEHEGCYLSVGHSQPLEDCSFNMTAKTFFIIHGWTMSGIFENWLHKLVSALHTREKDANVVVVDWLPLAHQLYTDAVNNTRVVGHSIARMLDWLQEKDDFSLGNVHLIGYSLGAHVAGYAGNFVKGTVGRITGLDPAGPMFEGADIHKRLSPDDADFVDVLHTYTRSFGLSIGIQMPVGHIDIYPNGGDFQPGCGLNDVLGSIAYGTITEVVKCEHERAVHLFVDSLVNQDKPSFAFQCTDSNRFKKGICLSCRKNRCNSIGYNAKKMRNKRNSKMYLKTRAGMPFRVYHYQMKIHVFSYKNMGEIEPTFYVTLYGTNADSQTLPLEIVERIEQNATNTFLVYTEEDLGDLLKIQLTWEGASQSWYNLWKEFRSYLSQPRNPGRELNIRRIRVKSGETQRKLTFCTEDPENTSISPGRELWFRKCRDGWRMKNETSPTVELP

SMILES | IC50
COCCS(=O)(=O)C(C(=O)NCC(=O)NC1CC1)c1nc2cc(C)c(-c3ccn(C)c(=O)c3)cc2s1 (stereo not shown) [Example 172, N-[(cyclopropyl-carbamoyl)methyl]-2-(2-methoxyethane-sulfonyl)-2-[5-methyl-6-(1-methyl-2-oxo-1,2-dihydropyridin-4-yl)-1,3-benzothiazol-2-yl]acetamide] | 27 nM
COCCS(=O)(=O)C(C(=O)NCC(=O)NC1CC1)c1nc2cc(C(F)(F)F)c(-c3ccc(F)nc3)cc2s1 (stereo not shown) [Example 173, N-[(cyclopropyl-carbamoyl)methyl]-2-[6-(6-fluoropyridin-3-yl)-5-(trifluoromethyl)-1,3-benzothiazol-2-yl]-2-(2-methoxyethane-sulfonyl) acetamide] | 32 nM
COCCS(=O)(=O)C(C(=O)NCC(=O)NC1CC1)c1nc2cc(C)c(-c3cnc(C)nc3)cc2s1 (stereo not shown) [Example 174, N-[(cyclopropyl-carbamoyl)methyl]-2-(2-methoxyethane-sulfonyl)-2-[5-methyl-6-(2-methylpyrimidin-5-yl)-1,3-benzothiazol-2-yl]acetamide] | 35 nM
COCCS(=O)(=O)C(C(=O)NCC(=O)NC1CC1)c1nc2cc(C(F)(F)F)c(-c3ccn(C)c(=O)c3)cc2s1 (stereo not shown) [Example 176, N-[(cyclopropyl-carbamoyl)methyl]-2-(2-methoxyethane-sulfonyl)-2-[6-(1-methyl-2-oxo-1,2-dihydropyridin-4-yl)-5-(trifluoromethyl)-1,3-benzothiazol-2-yl]acetamide] | 37 nM
COCCS(=O)(=O)C(C(=O)NCC(=O)NC1CC1)c1nc2cc(C(F)(F)F)c(-c3cnc(C)nc3)cc2s1 (stereo not shown) [Example 178, N-[(cyclopropyl-carbamoyl)methyl]-2-(2-methoxyethane-sulfonyl)-2-[6-(2-methylpyrimidin-5-yl)-5-(trifluoromethyl)-1,3-benzothiazol-2-yl]acetamide] | 56 nM
CC(C)S(=O)(=O)C(C(=O)NCC(=O)NC1CC1)c1nc2cc(C(F)(F)F)c(-c3ccnn3C)cc2s1 (stereo not shown) [Example 180, N-[(cyclopropyl-carbamoyl)methyl]-2-[6-(1-methyl-1H-pyrazol-5-yl)-5-(trifluoromethyl)-1,3-benzothiazol-2-yl]-2-(propane-2-sulfonyl) acetamide] | 88 nM
COCCS(=O)(=O)C(C(=O)NCC(=O)NC1CC1)c1nc2cc(F)c(-c3cccc(F)n3)cc2s1 (stereo not shown) [Example 181, N-[(cyclopropyl-carbamoyl)methyl]-2-[5-fluoro-6-(6-fluoropyridin-2-yl)-1,3-benzothiazol-2-yl]-2-(2-methoxyethane-sulfonyl) acetamide] | 143 nM
COCCS(=O)(=O)C(C(=O)NCC(=O)NC1CC1)c1nc2cc(-c3cncnc3)c(C)cc2s1 (stereo not shown) [Example 183, N-[(cyclopropyl-carbamoyl)methyl]-2-(2-methoxyethane-sulfonyl)-2-[6-methyl-5-(pyrimidin-5-yl)-1,3-benzothiazol-2-yl]acetamide] | 39 nM
COCCS(=O)(=O)C(C(=O)NCC(=O)NC1CC1)c1nc2cc(C)c(-c3ccc(F)nc3)cc2s1 (stereo not shown) [Example 185, N-[(cyclopropyl-carbamoyl)methyl]-2-[6-(6-fluoropyridin-3-yl)-5-methyl-1,3-benzothiazol-2-yl]-2-(2-methoxyethane-sulfonyl) acetamide] | 4 nM
COCCS(=O)(=O)C(C(=O)NCC(=O)NC1CC1)c1nc2cc(C)c(-c3cnnc(C)c3)cc2s1 (stereo not shown) [Example 186, N-[(cyclopropyl-carbamoyl)methyl]-2-(2-methoxyethane-sulfonyl)-2-[5-methyl-6-(6-methylpyridazin-4-yl)-1,3-benzothiazol-2-yl]acetamide] | 40 nM
COCCS(=O)(=O)C(C(=O)NCC(=O)NC1CC1)c1nc2cc(C)c(-c3ccc4c(=O)n(C)ccc4c3)cc2s1 (stereo not shown) [Example 189, N-[(cyclopropyl-carbamoyl)methyl]-2-(2-methoxyethane-sulfonyl)-2-[5-methyl-6-(2-methyl-1-oxo-1,2-dihydro-isoquinolin-6-yl)-1,3-benzothiazol-2-yl]acetamide] | 4 nM
CS(=O)(=O)C(C(=O)NCC(=O)NC1CC1)c1nc2cc(F)c(-c3cnc(C4CC4)nc3)cc2s1 (stereo not shown) [Example 192, N-[(cyclopropyl-carbamoyl)methyl]-2-[6-(2-cyclopropyl-pyrimidin-5-yl)-5-fluoro-1,3-benzothiazol-2-yl]-2-methanesulfonyl-acetamide] | 25 nM
Cn1ncc2ccc(-c3cc4sc(C(C(=O)NCC(=O)NC5CC5)S(C)(=O)=O)nc4cc3F)cc21 (stereo not shown) [Example 196, N-[(cyclopropyl-carbamoyl)methyl]-2-[5-fluoro-6-(1-methyl-1H-indazol-6-yl)-1,3-benzothiazol-2-yl]-2-methanesulfonyl-acetamide] | 1 nM

Continued by falling IC50, values first:

IC50 | SMILES
229 nM | COCCS(=O)(=O)C(C(=O)NCC(=O)NC1CC1)c1nc2cc(C(F)(F)F)c(-c3cnnc(C)c3)cc2s1 (stereo not shown) [Example 187, N-[(cyclopropyl-carbamoyl)methyl]-2-(2-methoxyethane-sulfonyl)-2-[6-(6-methylpyridazin-4-yl)-5-(trifluoromethyl)-1,3-benzothiazol-2-yl]acetamide]
82 nM | CC(C)S(=O)(=O)C(C(=O)NCC(=O)NC1CC1)c1nc2cc(C(F)(F)F)c(Br)cc2s1 (stereo not shown) [Example 179, 2-[6-bromo-5-(trifluoromethyl)-1,3-benzothiazol-2-yl]-N-[(cyclopropyl-carbamoyl)methyl]-2-(propane-2-sulfonyl) acetamide]
51 nM | COCCS(=O)(=O)C(C(=O)NCC(=O)NC1CC1)c1nc2cc(F)c(-c3cccc(C(=O)N(C)C)c3)cc2s1 (stereo not shown) [Example 177, 3-[2-({[(cyclopropyl-carbamoyl)methyl]carbamoyl}(2-methoxyethane-sulfonyl)methyl)-5-fluoro-1,3-benzothiazol-6-yl]-N,N-dimethyl-benzamide]
37 nM | CC(C)S(=O)(=O)C(C(=O)NCC(=O)NC1CC1)c1nc2cc(C(F)(F)F)c(-c3cccc(C(=O)N(C)C)c3)cc2s1 (stereo not shown) [Example 175, 3-[2-({[(cyclopropyl-carbamoyl)methyl]carbamoyl} (propane-2-sulfonyl)methyl)-5-(trifluoromethyl)-1,3-benzothiazol-6-yl]-N,N-dimethyl-benzamide]
37 nM | COCCS(=O)(=O)C(C(=O)NCC(=O)NC1CC1)c1nc2cc(C(F)(F)F)c(-c3ccc(=O)n(C(C)C)c3)cc2s1 (stereo not shown) [Example 188, N-[(cyclopropyl-carbamoyl)methyl]-2-(2-methoxyethane-sulfonyl)-2-{6-[6-oxo-1-(propan-2-yl)-1,6-dihydropyridin-3-yl]-5-(trifluoromethyl)-1,3-benzothiazol-2-yl}acetamide]
34 nM | Cc1ncc(-c2cc3sc(C(C(=O)NCC(=O)NC4CC4)S(C)(=O)=O)nc3cc2F)cn1 (stereo not shown) [Example 194, N-[(cyclopropyl-carbamoyl)methyl]-2-[5-fluoro-6-(2-methylpyrimidin-5-yl)-1,3-benzothiazol-2-yl]-2-methanesulfonyl-acetamide]
29 nM | COCCS(=O)(=O)C(C(=O)NCC(=O)NC1CC1)c1nc2cc(-c3cnc(C)nc3)c(C)cc2s1 (stereo not shown) [Example 184, N-[(cyclopropyl-carbamoyl)methyl]-2-(2-methoxyethane-sulfonyl)-2-[6-methyl-5-(2-methylpyrimidin-5-yl)-1,3-benzothiazol-2-yl]acetamide]
27 nM | COCCS(=O)(=O)C(C(=O)NCC(=O)NC1CC1)c1nc2cc(F)c(-c3ccc(F)nc3)cc2s1 (stereo not shown) [Example 171, N-[(cyclopropyl-carbamoyl)methyl]-2-[5-fluoro-6-(6-fluoropyridin-3-yl)-1,3-benzothiazol-2-yl]-2-(2-methoxyethane-sulfonyl) acetamide]
23 nM | CC(C)n1cc(-c2cc3sc(C(C(=O)NCC(=O)NC4CC4)S(C)(=O)=O)nc3cc2F)ccc1=O (stereo not shown) [Example 195, N-[(cyclopropyl-carbamoyl)methyl]-2-{5-fluoro-6-[6-oxo-1-(propan-2-yl)-1,6-dihydropyridin-3-yl]-1,3-benzothiazol-2-yl}-2-methanesulfonyl-acetamide]
21 nM | COCCS(=O)(=O)C(C(=O)NCC(=O)NC1CC1)c1nc2cc(-c3ccc(F)nc3)c(C)cc2s1 (stereo not shown) [Example 182, N-[(cyclopropyl-carbamoyl)methyl]-2-[5-(6-fluoropyridin-3-yl)-6-methyl-1,3-benzothiazol-2-yl]-2-(2-methoxyethane-sulfonyl) acetamide]
16 nM | CS(=O)(=O)C(C(=O)NCC(=O)NC1CC1)c1nc2cc(F)c(-c3ccc(F)nc3)cc2s1 (stereo not shown) [Example 190, N-[(cyclopropyl-carbamoyl)methyl]-2-[5-fluoro-6-(6-fluoropyridin-3-yl)-1,3-benzothiazol-2-yl]-2-methanesulfonyl-acetamide]
9 nM | Cc1ccc(-c2cc3sc(C(C(=O)NCC(=O)NC4CC4)S(C)(=O)=O)nc3cc2F)cn1 (stereo not shown) [Example 191, N-[(cyclopropyl-carbamoyl)methyl]-2-[5-fluoro-6-(6-methylpyridin-3-yl)-1,3-benzothiazol-2-yl]-2-methanesulfonyl-acetamide]
5 nM | Cn1ccc2cc(-c3cc4sc(C(C(=O)NCC(=O)NC5CC5)S(C)(=O)=O)nc4cc3F)ccc2c1=O (stereo not shown) [Example 193, N-[(cyclopropyl-carbamoyl)methyl]-2-[5-fluoro-6-(2-methyl-1-oxo-1,2-dihydro-isoquinolin-6-yl)-1,3-benzothiazol-2-yl]-2-methanesulfonyl-acetamide]
5 nM | COCCS(=O)(=O)C(C(=O)NCC(=O)NC1CC1)c1nc2cc(F)c(-c3ccc4cnn(C)c4c3)cc2s1 (stereo not shown) [Example 198, N-[(cyclopropyl-carbamoyl)methyl]-2-[5-fluoro-6-(1-methyl-1H-indazol-6-yl)-1,3-benzothiazol-2-yl]-2-(2-methoxyethane-sulfonyl) acetamide]
3 nM | CS(=O)(=O)C(C(=O)NCC(=O)NC1CC1)c1nc2cc(F)c(-c3ccc4[nH]c(=O)ccc4c3)cc2s1 (stereo not shown) [Example 197, N-[(cyclopropyl-carbamoyl)methyl]-2-[5-fluoro-6-(2-oxo-1,2-dihydroquinolin-6-yl)-1,3-benzothiazol-2-yl]-2-methanesulfonyl-acetamide]
